Results taken from patent publication US9889135B2, “Companion diagnostic for CDK4 inhibitors” (Memorial Sloan-Kettering Cancer Center, priority 2013, dated 2018).

Key:
[1] = test system: Glioma (U87MG, U251, SNB19, DBTRG-05MG) and breast cancer (MDA453, T47D, ZR-75-1, and MCF7) cells; test: SA-β-gal senescence in glioma and breast cancer cell lines; format: cell-based; conditions: eight cell lines, some p53 and/or INK4 mutant
Excerpt: FIG. 19A-C. Senescence associated with the downregulation of MDM2 is p53 and INK4 independent. […] This experiment was repeated three times with similar results in both LS8817 and LS141. […] The p53 mutational status of these cell lines (WT, wild type; R273H and L194F, missense mutations; if-DEL, in-frame deletion of 30 nucleotides at amino acid 368) were obtained from the p53 mutation database and the RIKEN bioresource databank and is consistent with the detection of p21 by immunoblot. (C) SNB19 cells, a p53 mutant and INK4A deficient cell, was transduced with the mutants described in panel A and their effect on senescence determined.
Cells were plated at a concentration of 25,000 per well in a 4-well chamber slides (Lab-Tek) and treated for seven days with drug and stained for senescence-associated β-galactosidase (Cell Signaling kit #9860). Cell number was quantitated by DAPI staining and β-galactosidase staining quantitated as a proportion of total cells.

[2] = test system: MDM2 in MCF7 breast cancer cells; test: MDM2 expression by immunoblot; format: cell-based
Protocol: (§1) Antibodies against CDK4 (3F121), MDM2 (N-20 and SMP14), total RB (IF8), Cyclin A (H432), p16 (C20), p53 (DO-1 and Bp53-12), tubulin (C20) and FLAG (M2) were obtained from Santa Cruz Biotechnology, phospho-Rb 780 (#9307) from Cell Signalling, and ARF (3642) from Abeam, HAUSP (A300-033A) from Bethyl Laboratories. Treated cells were lysed with buffer composed of 50 mM Tris-HCl, pH7.4, 250 mM NaCl, 5 mM EDTA, 0.5% NP40, 2 mM PMSF, and supplemented with protease inhibitors. Eighty micrograms of protein were resolved by SDS-PAGE and transferred to PVDF membranes. Membranes were incubated overnight with antibodies (1:1000). […] Cycles were repeated every four weeks and patients are still on trial. Pre-treatment biopsies were collected within two weeks of the first dose and post-treatment biopsies collected after at last three weeks of treatment. Extracts were prepared in 50 mM Tris-HCl, pH7.4, 150 mM NaCl, 1 mM EDTA, 1% NP40, 0.25% sodium deoxycholate and supplemented with mini-protease inhibitor cocktail (Roche). Tumor response was assessed by reference radiologist by CT scan every six weeks for 36 weeks, and every 12 weeks thereafter. The clinical trial was approved by the Institutional Review Board of Memorial Sloan-Kettering Cancer Center and all patients provided written informed consent (NCT01209598).

[3] = test system: MDM2 in DKMG glioma cells; test: MDM2 expression by immunoblot; format: cell-based
Protocol: as §1

[4] = test system: MDM2 in DBTRG-05MG glioma cells; test: MDM2 expression by immunoblot; format: cell-based
Protocol: as §1

[5] = test system: MDM2 in SNB19 glioma cells; test: MDM2 expression by immunoblot; format: cell-based
Protocol: as §1

[6] = test system: MDM2 in T98G glioma cells; test: MDM2 expression by immunoblot; format: cell-based
Protocol: as §1

T98G glioma cells = test: senescence-associated β-galactosidase staining; format: cell-based; conditions: after treatment
Protocol: (§2) Cells were plated at a concentration of 25,000 per well in a 4-well chamber slides (Lab-Tek) and treated for seven days with drug or shRNA as described above and stained for senescence-associated β-galactosidase (Cell Signaling kit #9860). Cell number was quantitated by DAPI staining and β-galactosidase staining quantitated as a proportion of total cells. Senescence associated heterochromatic foci were quantitated after cells were fixed with 4% paraformaldehyde, permeabilized with 0.1% Triton, blocked with 2% FBS, and stained with antibodies against HP1γ (1:5000 dilution, 2MOD-1G6 Millipore). Senescent cells were identified by immunofluorescence after treatment of slides with anti-mouse secondary antibodies and quantitation of focal SAHF as a percent of total cells (Leica Upright Confocal SP5 confocal microscope). Actin was marked using phalloidin staining (1:500, Invitrogen) and cells were counterstained with DAPI. Cell area was measured by with Metamorph software to calculate relative area per cell.

DKMG glioma cells = test: senescence-associated β-galactosidase staining; format: cell-based
Protocol: as §2

SNB19 glioma cells = test: senescence-associated β-galactosidase staining; format: cell-based
Protocol: as §2

DBTRG-05MG glioma cells = test: senescence-associated β-galactosidase staining; format: cell-based
Protocol: as §2

MCF7 breast cancer cells = test: senescence-associated β-galactosidase staining; format: cell-based
Protocol: as §2

[7] = test system: p27 in responder and non-responder cells; test: p27 levels by immunoblot; format: cell-based, human
Excerpt: FIG. 22. Additional immunoblot analysis in responder and non-responder cells. […] Actin is a loading control. This experiment was repeated at least three times for each cell line.

[8] = test system: HAUSP and MDM2 interaction in LS8817, LS0082, LS7785-1 and LS7785-10 cells; test: co-immunoprecipitation of HAUSP and MDM2; format: cell-based, human; conditions: two days PD0332991, then 5 μM MG132 for 2 hours; detected in untreated cells
Protocol: FIG. 25A-D. Turnover of MDM2 is regulated post-translationally. […] Extracts were prepared and MDM2 was immunoprecipitated and the presence of HAUSP and MDM2 in the precipitates were determined by immunoblot. IgG was used as a non-specific antibody control for the immunoprecipitation. […] Tubulin is a loading control. HAUSP levels were reduced with shRNA in the indicated cells lines and the effect on protein expression (C) and the accumulation of senescence-associated (3-galactosidase positive cells measured (D). The mean and standard deviation was compiled from at least two independent experiments with each cell line and a representative immunoblot is shown.

[9] = ratio of MDM2 detected by Image J scanning in treated versus untreated cultures

Question: Which “senescence as measured by accumulation of SA-β-gal” value [1] does the source give for `CC(=O)c1c(C)c2cnc(Nc3ccc(N4CCNCC4)cn3)nc2n(C2CCCC2)c1=O` [PD0332991] here?
Answer: All of the cell lines underwent senescence

Question: And the “MDM2 expression levels reduced compared to the non-treated cells” value [2]?
Answer: greater than 34%

Question: What about the “ΔMDM2 with PD” value [2, 9] of the same compound?
Answer: 0.08

Question: And the “MDM2 expression levels reduced compared to the non-treated cells” value [3]?
Answer: greater than 34%

Question: And the “ΔMDM2 with PD” value [3, 9]?
Answer: 0.66

Question: And the “MDM2 expression levels reduced compared to the non-treated cells” value [4]?
Answer: greater than 34%

Question: And the “ΔMDM2 with PD” value [4, 9]?
Answer: 0.49

Question: And the “MDM2 expression levels reduced compared to the non-treated cells” value [5]?
Answer: greater than 34%

Question: And the “ΔMDM2 with PD” value [5, 9]?
Answer: 0.08

Question: And the MDM2 levels ([6]; cells that did not undergo senescence)?
Answer: unaffected

Question: And the “ΔMDM2 with PD” value [6, 9]?
Answer: Not detected

Question: And the “increase in the number of SA-β-gal cells” value (T98G glioma cells)?
Answer: not observed

Question: What about the “PD-induced SA-β-gal” value (DKMG glioma cells; 7 days of treatment) of the same compound?
Answer: Y (Y, yes: the number of SA-β-gal cells increases at least 10X after 7 days of treatment)

Question: And the “number of SA-β-gal cells” value (DKMG glioma cells; seven days after exposure)?
Answer: significant increase

Question: And the “PD-induced SA-β-gal” value (SNB19 glioma cells; 7 days of treatment)?
Answer: Y (Y, yes: the number of SA-β-gal cells increases at least 10X after 7 days of treatment)

Question: What about the “number of SA-β-gal cells” value (SNB19 glioma cells; seven days after exposure) of the same compound?
Answer: significant increase

Question: What about the “PD-induced SA-β-gal” value (DBTRG-05MG glioma cells; 7 days of treatment) of the same compound?
Answer: Y (Y, yes: the number of SA-β-gal cells increases at least 10X after 7 days of treatment)

Question: What about the “number of SA-β-gal cells” value (DBTRG-05MG glioma cells; seven days after exposure) of the same compound?
Answer: significant increase

Question: And the “PD-induced SA-β-gal” value (MCF7 breast cancer cells; 7 days of treatment)?
Answer: Y (Y, yes: the number of SA-β-gal cells increases at least 10X after 7 days of treatment)

Question: And the “number of SA-β-gal cells” value (MCF7 breast cancer cells; seven days after exposure)?
Answer: significant increase

Question: What about the p27 levels [7] of the same compound?
Answer: unchanged

Question: What about the “interaction of HAUSP and MDM2 detected by co-immunoprecipitation” value [8] of the same compound?
Answer: not in any of the cells treated
